Assay results as given in patent US20110178072A1, “STEREOSPECIFICITY OF METHYLSULFINYL REDUCTION” (priority 2008, published 2011).

Columns and labels:
[1] = target: T1, mouse MsrA (Mus musculus, UniProt Q9D6Y7); experiment: Reduction of methylsulfinyl compounds by mouse MsrA (HPLC/GC analysis); type: biochemical
T1 sequence (Q9D6Y7 21-233): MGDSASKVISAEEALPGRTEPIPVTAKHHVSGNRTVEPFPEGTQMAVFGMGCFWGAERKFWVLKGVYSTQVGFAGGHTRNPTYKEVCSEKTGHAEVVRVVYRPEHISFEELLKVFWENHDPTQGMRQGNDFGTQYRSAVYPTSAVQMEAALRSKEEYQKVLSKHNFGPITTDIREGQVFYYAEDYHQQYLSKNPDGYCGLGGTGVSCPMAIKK
Procedure: (§1) The isothiocyanate group in R,S-sulforaphane reacts with sulfhydryls to form conjugated compounds. First, the compound was treated with excess DTT (which has two free sulfhydryl groups) to conjugate the isothiocyanate group of R,S-sulforaphane or S-sulforaphane with the sulfhydryl group of DTT and the resulting adducts were then used as substrates for mouse MsrA and mouse MsrB2. The reduction of the DTT-sulforaphane adduct was analyzed using HPLC analysis of the adduct with buffer (as control; FIG. 12A), mouse MsrB2 (FIG. 12B), and mouse MsrA (FIG. 12C). The arrows indicate the migration of the DTT-erucin adduct. […] FIG. 13 illustrates the HPLC analysis of the DTT-R-sulforaphane adduct incubated with buffer (as control) (FIG. 13A), mouse MsrA (FIG. 13B), and mouse MsrB2 (FIG. 13C). Again, the arrows show the migration of the DTT-erucin adduct.
(§2) Mesoridazine, which has a mild effect on treating schizophrenia, was examined to determine its reduction by yeast fRMsr, mouse MsrB2, and mouse MsrA (FIG. 14). The peak of m/z 387.6 corresponds to the molecular weight of mesoridazine and the peak of m/z 371.6 corresponds to the molecular weight of thioridazine. FIG. 14B details the HPLC analysis of mesoridazine incubated with mouse MsrB2 and DTT. FIG. 14C provides the HPLC analysis of mesoridazine incubated with yeast fRMsr and DTT. FIG. 14D illustrates the specific activities of various Msrs for the reduction of mesoridazine (left to right): mouse MsrA in the presence of DTT as a reductant, mouse MsrA in the presence of the thioredoxin reducing system, mouse MsrB2 in the presence of DTT, and yeast fRMsr in the presence of DTT.
(§3) The reduction of triclabendazole sulfoxide was examined. This compound has been used to treat liver fluke, Fasciola hepatica and Fasciola gigantica, in sheep, goat, and cattle as a form of triclabendazole. Triclabendazole can be metabolized to several different forms including triclabendazole sulfoxide, which is an oxidized form of methylsulfide group, in biological systems. FIG. 15A provides an HPLC analysis of triclabendazole sulfoxide incubated with mouse MsrA and DTT. The peak of m/z 375.2 and 377.2 correspond to the molecular weight of triclabendazole sulfoxide and the peak of m/z 359.2 and 361.2 correspond to the molecular weight of triclabendazole. FIG. 15B illustrates an HPLC analysis of triclabendazole sulfoxide incubated with mouse MsrB2 and DTT. FIG. 15C details an HPLC analysis of triclabendazole sulfoxide incubated with yeast fRMsr and DTT. FIG. 15D illustrates the specific activities of various Msrs for the reduction of triclabendazole sulfoxide (left to right): mouse MsrA in the presence of DTT as a reductant, mouse MsrA in the presence of the thioredoxin reducing system, mouse MsrB2 in the presence of DTT, and yeast fRMsr in the presence of DTT.
(§4) Another methylsulfinyl-containing drug, sulmazole, was tested as a substrate for Msrs. This drug is pharmacologically active as a cardiotonic agent and is a phosphodiesterase inhibitor. FIG. 16A details an HPLC analysis of sulmazole incubated with mouse MsrA and DTT. The peak of m/z 288.3 corresponds to the molecular weight of sulmazole and the peak of m/z 272.3 corresponds to the molecular weight of reduced form of sulmazole. FIG. 16B illustrates an HPLC analysis of sulmazole incubated with mouse MsrB2 and DTT. FIG. 16C provides an HPLC analysis of sulmazole incubated with yeast fRMsr and DTT. FIG. 16D details the specific activities of various Msrs for the reduction of sulmazole (left to right): mouse MsrA in the presence of DTT as a reductant, mouse MsrA in the presence of the thioredoxin reducing system, mouse MsrB2 in the presence of DTT, and yeast fRMsr in the presence of DTT.
DMSO, which is used as a preservative for stem cells, solvent for drugs, and a drug itself with anti-inflammatory and free radical scavenging properties, was studied for its reduction by Msrs. FIG. 17A details a GC analysis of DMSO incubated with mouse MsrA and DTT. […]

[2] = target: mouse MsrB2 (Mus musculus, UniProt Q78J03); experiment: Reduction of methylsulfinyl compounds by mouse MsrB2 (HPLC/GC analysis); type: biochemical; details: in the presence of DTT
Procedure: as §1, §2, §3
as §4, with “FIG. 16D details the specific activities of various Msrs for the reduction of sulmazole (left to right): mouse MsrA in the presence of DTT as a reductant, mouse MsrA in the presence of the thioredoxin reducing system, mouse MsrB2 in the presence of DTT, and yeast fRMsr in the presence of DTT.” left out

[3] = target: T2, yeast fRMsr (Saccharomyces cerevisiae, UniProt P36088); experiment: Reduction of methylsulfinyl drugs by yeast fRMsr (HPLC analysis); type: biochemical; details: in the presence of DTT
T2 construct: His-tag (C); made in house; host or cells: E. coli BL21 (DE3), pET21b
T2 sequence (P36088 1-180): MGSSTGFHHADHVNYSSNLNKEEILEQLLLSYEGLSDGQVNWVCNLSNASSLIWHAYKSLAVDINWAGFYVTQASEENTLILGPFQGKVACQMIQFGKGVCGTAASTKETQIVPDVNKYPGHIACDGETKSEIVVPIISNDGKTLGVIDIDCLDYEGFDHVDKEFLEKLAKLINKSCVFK
Procedure: as §2
The reduction of triclabendazole sulfoxide was examined. This compound has been used to treat liver fluke, Fasciola hepatica and Fasciola gigantica, in sheep, goat, and cattle as a form of triclabendazole. Triclabendazole can be metabolized to several different forms including triclabendazole sulfoxide, which is an oxidized form of methylsulfide group, in biological systems. FIG. 15A provides an HPLC analysis of triclabendazole sulfoxide incubated with mouse MsrA and DTT. […]

[4] = target: T3, mouse MsrB1-Cys (Mus musculus, UniProt Q9JLC3, U95C); experiment: Reduction of DMSO by mouse MsrB1-Cys (GC analysis); type: biochemical; details: in the presence of DTT; selenocysteine replaced with cysteine
T3 sequence (Q9JLC3 1-116 U95C): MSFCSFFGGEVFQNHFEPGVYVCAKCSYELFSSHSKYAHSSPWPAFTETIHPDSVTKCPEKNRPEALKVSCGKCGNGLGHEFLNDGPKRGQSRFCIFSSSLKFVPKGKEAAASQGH
Procedure: DMSO, which is used as a preservative for stem cells, solvent for drugs, and a drug itself with anti-inflammatory and free radical scavenging properties, was studied for its reduction by Msrs. FIG. 17A details a GC analysis of DMSO incubated with mouse MsrA and DTT. FIG. 17B provides a GC analysis of DMSO incubated with mouse MsrB2 and DTT. FIG. 17C illustrates a GC analysis of DMSO incubated with mouse MsrB1-Cys and DTT. FIG. 17D provides specific activities of various Msrs for the reduction of DMSO (left to right): mouse MsrA in the presence of DTT as a reductant, mouse MsrB2 in the presence of DTT, and mouse MsrB1-Cys in the presence of DTT.

[5] = test system: SK-Hep1 cells; experiment: Growth of SK-Hep1 cells in media supplemented or not with sodium selenite; type: cell-based, human; details: 100 nM; FBS-supplemented and insulin/transferrin media
Procedure: Growth of SK-Hep1 cells was analyzed in modified DMEM media containing Met, Met-SO, Met-RO, or Met-RSO (0.1 mM of each amino acid) or with no addition of these compounds. In addition, media were supplemented or not with 100 nM sodium selenite. Cells were analyzed at 0, 24, 48, and 72 hours. Another experiment involving SK-Hep1 cells was performed with cells grown in serum-free modified DMEM medium, containing insulin (5 μg/mL) and transferrin (10 μg/mL), Met or Met-RSO (0.1 mM of each amino acid) and 100 nM sodium selenite (or with no addition of this compound), and separately in 10% dialyzed FBS-containing DMEM medium containing 0.1 mM Met with 100 nM sodium selenite (or not). Cells were analyzed at 0, 24, 48, and 72 hours. Cell growth assays were carried out as described below.
Proliferation Assay—Cell growth was quantified using colorimetric MTS assay (Promega). Cells in regular DMEM medium were plated in 96-well plates at 5×10^3 cells/well, washed with PBS, and specialized DMEM media were added that contained Met, Met-SO, Met-RO, or Met-RSO 24 hours after plating. […] After 90 minutes of incubation at 37° C. in the atmosphere of 5% CO2, cell proliferation was measured at indicated time periods from 0 to 96 hours at 450 nm in a plate reader. […]

[6] = thioredoxin system as reductant

Chain of mouse MsrB2 (Q78J03 43-175): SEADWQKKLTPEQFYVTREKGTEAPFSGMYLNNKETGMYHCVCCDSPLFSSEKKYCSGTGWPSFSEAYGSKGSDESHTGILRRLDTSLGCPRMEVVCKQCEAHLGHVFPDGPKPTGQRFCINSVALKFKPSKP

## COc1cc([S+](C)[O-])ccc1-c1nc2ncccc2[nH]1 (stereo not drawn) [sulmazole, Sulmazole]
[1]; DTT as a reductant
  Reduction by mouse MsrA: specifically reduced
[1]; [6]
  Reduction by mouse MsrA: specifically reduced
[2]
  Reduction by mouse MsrB2: not reduced
[3]
  Reduction by yeast fRMsr: not reduced

## CN1CCCCC1CCN1c2ccccc2Sc2ccc([S+](C)[O-])cc21 (stereo not drawn) [Mesoridazine]
[1]; DTT as a reductant
  Reduction by mouse MsrA: reduced to thioridazine
[1]; [6]
  Reduction by mouse MsrA: reduced to thioridazine
[2]
  Reduction by mouse MsrB2: no activity was observed
[3]
  Reduction by yeast fRMsr: no activity was observed

## Dimethylsulfoxide [DMSO]
[1]; DTT as a reductant
  Reduction by mouse MsrA: can be reduced
[2]
  Reduction by mouse MsrB2: very inefficient substrate
[4]
  Reduction by mouse MsrB1-Cys: very inefficient substrate

## O=[Se]([O-])[O-].[Na+].[Na+] [sodium selenite]
[5]
  Influence on cell growth on Met and Met sulfoxide: did not influence cell growth
